Results as given in patent EP0804206B1, “ANTIFUNGAL AGENT CONTAINING CROTAMITON, AND SALICYCLIC ALDEHYDE” (Pierre Fabre Dermo-Cosmetique, priority 1995, dated 1996).

Test system: Trichophyton mentagrophytes n° 8611
Experiment: Minimal fungistatic concentration (CMF) of the products alone and combined, with FIC index
Format: cell-based
From the text: La synergie peut être mise-en évidence par le calcul des index FIC (Fractional Inhibitory Concentration) ou FBC (Fractional Bactericidal Concentration) des produits. Pour cela, on mesure la valeur de la CMF (ou concentration minimale fongistatique), ou de la CMϕ (ou concentration minimale fongicide), des principes actifs à tester vis-à-vis d'un type de germe.
Le FIC d'un produit A est défini comme : FICA (CMF du produit A en association)/(CMF du produit A seul) [formula]
L'association de deux antifongiques A et B est synergique si la somme FIC des rapports (FICA + FICB) est inférieure ou égale à 0,75.
On considère qu'il y a simple additivité pour des valeurs de FIC comprises entre 0,75 et 1,1, et indifférence dans l'intervalle compris entre 1,1 et 2; au-delà, l'association est notée antagoniste.
Après détermination des niveaux de concentrations minimales inhibitrices pour chaque souche, les associations entre les différents principes actifs sont testées. Le FIC Index =(CMI crotamiton associé)/(CMI crotamiton seul)+(CMI salicylaldéhyde associé)/(CMI salicylaldéhyde seul) [formula] est calculé.
Les activités antifongiques du crotamiton et du salicylaldéhyde ont été recherchées sur Trichophyton mentagrophytes.
Les concentrations minimales fongistatiques des produits seuls et associés sont présentées ici.
• * Souche • Trichophyton mentagrophytes n° 8611 • * Milieux de culture • Bouillon Sabouraud • Gélose Sabouraud • Eau distillée stérile • * Produits • Crotamiton (Borhinger, lot-209313) • Salicylaldéhyde Prolabo Rectapur encapsulé dans β cyclodextrines = formule aldéhydique
Les solutions-mère aqueuses des produits suivants ont été testées pour leur meilleure solubilité et sans artéfact d'activité antifongique : • Crotamiton : 0,2% dans 10% PEG 200 • Solution aqueuse à 10% aldhéhyde salicylique.
Les essais sont réalisés plusieurs fois car ces produits sont très volatils, rendant la lecture des tests très difficile. […]

## CC=CC(=O)N(CC)c1ccccc1C [Crotamiton, N-éthyl-O crotonotoluidide]
Combined versus alone, formule aldéhydique at 10% aldehyde
  fois moins de produit pour obtenir le même effet antifongique que les produits utilisés seuls: 30 fois
Product alone, T. mentagrophytes calibrated at 10^6 spores per ml
  CMF = Concentrations Minimales Fongistatiques, Seul: 0,1%
Product in the binary combination Crotamiton - Formule aldéhydique, T. mentagrophytes 10^6 spores per ml
  CMF = Concentrations Minimales Fongistatiques, Associés: 0,003%
